Laboratory results as given in ChEMBL document CHEMBL1201862, “PubChem BioAssay data set” (2004).
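Each compound was tested at five concentrations against cells in 96-well plates for 48 hours. The concentration for 50% growth inhibition is given as GI50.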 The source made the active and inactive calls. No stated cut-off is given here; in the data, active = GI50 up to about 1.1 µM and inactive = higher.

Tests used:
Test in all cases: DTP human tumour cell line panel, 48 h
EKVX = tested on: EKVX
HOP-62 = tested on: HOP-62
SK-MEL-28 = tested on: SK-MEL-28
HCT-15 = tested on: HCT-15
IGROV-1 = tested on: IGROV-1
SNB-75 = tested on: SNB-75
UO-31 = tested on: UO-31
HL-60 = tested on: HL-60
SR = tested on: SR
SNB-19 = tested on: SNB-19
SN12C = tested on: SN12C
OVCAR-8 = tested on: OVCAR-8
HT-29 = tested on: HT-29
OVCAR-5 = tested on: OVCAR-5
NCI-H226 = tested on: NCI-H226
ACHN = tested on: ACHN
A498 = tested on: A498
KM-20L2 = tested on: KM-20L2
BT-549 = tested on: BT-549
PC-3 = tested on: PC-3

SMILES: CC(=O)CC(=O)NC=O
- GI50 (EKVX): > 100 µM (inactive)
- GI50 (HOP-62): > 100 µM (inactive)
- GI50 (SK-MEL-28): > 100 µM (inactive)
- GI50 (HCT-15): > 100 µM
- GI50 (IGROV-1): > 100 µM (inactive)
- GI50 (SNB-75): > 100 µM (inactive)
- GI50 (UO-31): > 100 µM (inactive)
- GI50 (HL-60): > 100 µM (inactive)
- GI50 (SR): > 100 µM (inactive)
- GI50 (SNB-19): > 100 µM (inactive)
- GI50 (SN12C): > 100 µM (inactive)
- GI50 (OVCAR-8): > 100 µM (inactive)
- GI50 (HT-29): > 100 µM (inactive)
- GI50 (OVCAR-5): > 100 µM (inactive)
- GI50 (NCI-H226): > 100 µM (inactive)
- GI50 (ACHN): > 100 µM (inactive)
- GI50 (A498): > 100 µM (inactive)
- GI50 (KM-20L2): > 100 µM (inactive)

SMILES: O=C(Cc1ccccc1)NS(=O)(=O)c1ccccc1
- GI50 (EKVX): > 100 µM (inactive)
- GI50 (HOP-62): > 100 µM (inactive)
- GI50 (SK-MEL-28): > 100 µM (inactive)
- GI50 (IGROV-1): > 100 µM (inactive)
- GI50 (SNB-75): > 100 µM (inactive)
- GI50 (UO-31): > 100 µM (inactive)
- GI50 (HL-60): > 100 µM (inactive)
- GI50 (SR): > 100 µM (inactive)
- GI50 (SNB-19): > 100 µM (inactive)
- GI50 (SN12C): > 100 µM (inactive)
- GI50 (OVCAR-8): > 100 µM (inactive)
- GI50 (HT-29): > 100 µM (inactive)
- GI50 (OVCAR-5): > 100 µM (inactive)
- GI50 (NCI-H226): > 100 µM (inactive)
- GI50 (ACHN): > 100 µM (inactive)
- GI50 (A498): > 100 µM (inactive)
- GI50 (KM-20L2): > 100 µM (inactive)

SMILES: COC1=C(C(=O)OC(C)(C)C)[C@]2(C)C(C(=O)OC(C)(C)C)C(OC)=C(C(=O)OC(C)(C)C)[C@]2(C)C1C(=O)OC(C)(C)C (some centres not stated)
- GI50 (EKVX): > 100 µM (inactive)
- GI50 (HOP-62): > 100 µM (inactive)
- GI50 (HCT-15): 53 µM
- GI50 (IGROV-1): > 100 µM (inactive)
- GI50 (SNB-75): > 100 µM (inactive)
- GI50 (UO-31): 85.3 µM (inactive)
- GI50 (HL-60): 24.9 µM (inactive)
- GI50 (SR): 33.6 µM (inactive)
- GI50 (SNB-19): > 100 µM (inactive)
- GI50 (SN12C): > 100 µM (inactive)
- GI50 (OVCAR-8): > 100 µM (inactive)
- GI50 (HT-29): 63.2 µM (inactive)
- GI50 (OVCAR-5): > 100 µM (inactive)
- GI50 (NCI-H226): > 100 µM (inactive)
- GI50 (ACHN): 69.3 µM (inactive)
- GI50 (A498): > 100 µM (inactive)
- GI50 (KM-20L2): > 100 µM (inactive)

SMILES: Cn1c2ccccc2n2c(=O)c3c(c(C#N)c12)CCCC3
- GI50 (EKVX): > 100 µM (inactive)
- GI50 (HOP-62): > 100 µM (inactive)
- GI50 (SK-MEL-28): > 100 µM (inactive)
- GI50 (HCT-15): > 100 µM
- GI50 (IGROV-1): > 100 µM (inactive)
- GI50 (SNB-75): 0.792 µM (active)
- GI50 (UO-31): > 100 µM (inactive)
- GI50 (HL-60): > 100 µM (inactive)
- GI50 (SR): > 100 µM (inactive)
- GI50 (SNB-19): > 100 µM (inactive)
- GI50 (SN12C): > 100 µM (inactive)
- GI50 (OVCAR-8): > 100 µM (inactive)
- GI50 (HT-29): > 100 µM (inactive)
- GI50 (OVCAR-5): > 100 µM (inactive)
- GI50 (NCI-H226): > 100 µM (inactive)
- GI50 (ACHN): > 100 µM (inactive)
- GI50 (A498): > 100 µM (inactive)
- GI50 (KM-20L2): > 100 µM (inactive)

SMILES: C=C(CN(C)C)C(=O)c1ccccc1OC
- GI50 (EKVX): 25.8 µM (inactive)
- GI50 (HOP-62): > 52.8 µM (inactive)
- GI50 (SK-MEL-28): 20.2 µM (inactive)
- GI50 (HCT-15): 15.9 µM
- GI50 (BT-549): 17.4 µM (inactive)
- GI50 (PC-3): 17.5 µM (inactive)
- GI50 (IGROV-1): 24.4 µM (inactive)
- GI50 (SNB-75): 27.2 µM (inactive)
- GI50 (UO-31): 16.4 µM (inactive)
- GI50 (HL-60): 3.23 µM (inactive)
- GI50 (SR): 10.2 µM (inactive)
- GI50 (SNB-19): 44.4 µM (inactive)
- GI50 (SN12C): 18.9 µM (inactive)
- GI50 (OVCAR-8): 21.6 µM (inactive)
- GI50 (HT-29): 20.5 µM (inactive)
- GI50 (OVCAR-5): 19.1 µM (inactive)
- GI50 (NCI-H226): 37.2 µM (inactive)
- GI50 (ACHN): 14.5 µM (inactive)
- GI50 (A498): 28.4 µM (inactive)
- GI50 (KM-20L2): 26.2 µM (inactive)

SMILES: O=C1C=CN(C2OC(CO)C(O)C2O)C(=O)C1 (configuration not stated)
- GI50 (EKVX): > 2500 µM (inactive)
- GI50 (HOP-62): 36.3 µM (inactive)
- GI50 (HCT-15): 17.9 µM
- GI50 (BT-549): > 2500 µM (inactive)
- GI50 (PC-3): 155 µM (inactive)
- GI50 (IGROV-1): 223 µM (inactive)
- GI50 (SNB-75): 838 µM (inactive)
- GI50 (UO-31): 29.7 µM (inactive)
- GI50 (HL-60): 9.46 µM (inactive)
- GI50 (SR): 5.42 µM (inactive)
- GI50 (SN12C): 10 µM (inactive)
- GI50 (HT-29): 32.3 µM (inactive)
- GI50 (OVCAR-5): 1350 µM (inactive)
- GI50 (NCI-H226): 423 µM (inactive)
- GI50 (ACHN): 39.2 µM (inactive)
- GI50 (A498): 867 µM (inactive)
- GI50 (KM-20L2): 67.3 µM (inactive)

SMILES: COC(=O)[C@@]12OC[C@]34C([C@@H](O)C1O)[C@@]1(C)CC(=O)C(O)=C(C)C1C[C@H]3OC(=O)[C@H](OC(=O)/C=C(/c1ccccc1)C(F)(F)F)[C@H]42 (some centres not stated)
- GI50 (EKVX): 12 µM (inactive)
- GI50 (HOP-62): 5.96 µM (inactive)
- GI50 (SK-MEL-28): 4.72 µM (inactive)
- GI50 (HCT-15): 7.93 µM
- GI50 (IGROV-1): 2.16 µM (inactive)
- GI50 (SNB-75): 7.8 µM (inactive)
- GI50 (UO-31): 6.82 µM (inactive)
- GI50 (HL-60): 0.363 µM (active)
- GI50 (SR): 0.655 µM (active)
- GI50 (SNB-19): 3.62 µM (inactive)
- GI50 (SN12C): 8.69 µM (inactive)
- GI50 (OVCAR-8): 10.5 µM (inactive)
- GI50 (HT-29): 2.18 µM (inactive)
- GI50 (OVCAR-5): 8.75 µM (inactive)
- GI50 (NCI-H226): 2.02 µM (inactive)
- GI50 (ACHN): 4.21 µM (inactive)
- GI50 (A498): 1.82 µM (inactive)
- GI50 (KM-20L2): 3.92 µM (inactive)

SMILES: CCC1(O)C(=O)OCc2c1cc1n(c2=O)Cc2cc3ccc(CO)cc3nc2-1 (configuration not stated)
- GI50 (EKVX): 16.8 µM (inactive)
- GI50 (HOP-62): 0.566 µM (active)
- GI50 (SK-MEL-28): > 78.5 µM (inactive)
- GI50 (HCT-15): 15.6 µM
- GI50 (IGROV-1): 12.2 µM (inactive)
- GI50 (SNB-75): 2.18 µM (inactive)
- GI50 (UO-31): 3.81 µM (inactive)
- GI50 (HL-60): 2.57 µM (inactive)
- GI50 (SR): 0.0646 µM (active)
- GI50 (SNB-19): 1.93 µM (inactive)
- GI50 (SN12C): 1.53 µM (inactive)
- GI50 (OVCAR-8): 2.62 µM (inactive)
- GI50 (HT-29): 9.35 µM (inactive)
- GI50 (OVCAR-5): 8.97 µM (inactive)
- GI50 (NCI-H226): 1.59 µM (inactive)
- GI50 (ACHN): 2.86 µM (inactive)
- GI50 (A498): 7.82 µM (inactive)
- GI50 (KM-20L2): 13.5 µM (inactive)

SMILES: CC(=O)OC(C)(C)/C=C/C(=O)[C@](C)(O)[C@H]1[C@H](O)C[C@@]2(C)[C@@H]3CC=C4[C@@H](C=C(O)C(=O)C4(C)C)[C@]3(C)C(=O)C[C@]12C [CUCURBITACIN E]
- GI50 (EKVX): 0.118 µM (active)
- GI50 (HOP-62): 0.0408 µM (active)
- GI50 (SK-MEL-28): 0.024 µM (active)
- GI50 (HCT-15): 0.0278 µM
- GI50 (BT-549): 0.027 µM (active)
- GI50 (PC-3): 0.259 µM (active)
- GI50 (IGROV-1): 0.0366 µM (active)
- GI50 (SNB-75): 0.0187 µM (active)
- GI50 (UO-31): 0.0235 µM (active)
- GI50 (HL-60): 0.0313 µM (active)
- GI50 (SNB-19): 0.057 µM (active)
- GI50 (SN12C): 0.0394 µM (active)
- GI50 (OVCAR-8): 0.166 µM (active)
- GI50 (HT-29): 0.0202 µM (active)
- GI50 (OVCAR-5): 0.186 µM (active)
- GI50 (NCI-H226): 0.0327 µM (active)
- GI50 (ACHN): 0.0179 µM (active)
- GI50 (A498): 0.0247 µM (active)
- GI50 (KM-20L2): 0.0197 µM (active)

SMILES: O=P(O)(NCCCl)NCCCl [PALIFOSFAMIDE]
- GI50 (EKVX): > 10 µM (inactive)
- GI50 (HOP-62): 65.6 µM (inactive)
- GI50 (SK-MEL-28): > 100 µM (inactive)
- GI50 (HCT-15): > 10 µM
- GI50 (BT-549): > 100 µM (inactive)
- GI50 (PC-3): > 100 µM (inactive)
- GI50 (IGROV-1): > 100 µM (inactive)
- GI50 (SNB-75): > 65.6 µM (inactive)
- GI50 (UO-31): > 100 µM (inactive)
- GI50 (HL-60): > 51.3 µM (inactive)
- GI50 (SR): 4.95 µM (inactive)
- GI50 (SNB-19): > 10 µM (inactive)
- GI50 (SN12C): 63 µM (inactive)
- GI50 (OVCAR-8): > 10 µM (inactive)
- GI50 (HT-29): > 10 µM (inactive)
- GI50 (OVCAR-5): > 10 µM (inactive)
- GI50 (NCI-H226): > 100 µM (inactive)
- GI50 (ACHN): 39.3 µM (inactive)
- GI50 (A498): > 100 µM (inactive)
- GI50 (KM-20L2): > 10 µM (inactive)
